Experimental data as given in patent publication EP1932831A1, “1,2-Diarylacetylene Derivatives of Acyltryptophanols” (Bayer Schering Pharma Aktiengesellschaft, priority 2006, dated 2008).

The compounds below were run against T1, human FSH receptor (Homo sapiens, UniProt P23945) (assay: HTRF assay for measuring cAMP in cells (FSH antagonism)). Conditions: FSH-antagonistic effect; hFSHR clone 16 cells (CHO cells stably transfected with the human FSH receptor); in the presence of 1e-9 mol/l hFSH; 37°C for 2h.
T1 construct: expressed in transfected cells; host or cells: CHO cells (hFSHR clone 16)
T1 sequence (P23945 18-695): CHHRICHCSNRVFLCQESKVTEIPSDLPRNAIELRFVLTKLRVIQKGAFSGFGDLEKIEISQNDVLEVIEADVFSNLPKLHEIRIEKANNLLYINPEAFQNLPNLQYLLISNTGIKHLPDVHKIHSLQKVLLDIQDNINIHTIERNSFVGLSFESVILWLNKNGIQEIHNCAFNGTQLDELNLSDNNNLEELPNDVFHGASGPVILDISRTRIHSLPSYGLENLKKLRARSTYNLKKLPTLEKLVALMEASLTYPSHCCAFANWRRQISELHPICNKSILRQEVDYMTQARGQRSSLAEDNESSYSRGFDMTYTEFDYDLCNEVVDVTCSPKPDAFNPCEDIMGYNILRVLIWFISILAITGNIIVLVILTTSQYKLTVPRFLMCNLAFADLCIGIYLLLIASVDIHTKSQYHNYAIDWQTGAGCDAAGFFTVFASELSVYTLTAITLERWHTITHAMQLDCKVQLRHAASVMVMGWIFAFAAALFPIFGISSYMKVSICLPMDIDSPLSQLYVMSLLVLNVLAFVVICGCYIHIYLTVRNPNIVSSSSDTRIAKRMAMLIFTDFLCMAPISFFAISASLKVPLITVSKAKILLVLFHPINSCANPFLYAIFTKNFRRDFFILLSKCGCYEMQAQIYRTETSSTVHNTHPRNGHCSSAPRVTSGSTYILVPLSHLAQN
Assay type: cell-based
Experimental: The method is based on a competitive immunoassay between native cAMP, which has been produced by the cells, and cAMP which is labelled with cAMPD2 conjugate. The tracer binding was visualized by a monoclonal antibody, anti-cAMP labelled with cryptate [HTRF = homogeneous time-resolved fluorescence]. The specific signal is inversely proportional to the cAMP concentration of the samples employed. The 665nm/ 620nm fluorescence ratio was evaluated.
Materials used: 96-well plates for the tissue culture, 96-well plates with black edge and black base (e.g. Fluotrac 600 from Greiner), 96-well plates for the substance dilutions of polypropylene and cAMP Femtomolar (4000wells Kit, CIS Bio International # 62AM5PEJ). Reagent used: BSA (bovine serum albumin) Fraction V protease-free, IBMX (3-isobutyl-1-methylxanthine), hFSH (human follicle stimulating hormone), Triton X-100 analytical grade, potassium fluoride analytical grade, G 418 (Geneticin) and Accutase.
Buffer 1 (washing and testing buffer) contained PBS, 1 mM CaCl2, 1 mM MgCl2, 0.2% glucose; 0.1% BSA, 1 mM IBMX.
Buffer 2 (2x lysis buffer) contained 1% Triton X-100 in PBS (without CaCl2 and MgCl2).
Buffer 3 (assay buffer) contained 50 mM potassium phosphate buffer (pH 7.0); 800 mM potassium fluoride; 0.2% BSA (always added fresh).
On day 1, the cells were seeded in 96-well plates (3x10^4 cells per well hFSHR clone 16 cells (CHO cells stably transfected with the human FSH receptor in 150 µl of medium). The next day, test substance dilutions were made up. For this purpose, all the substances were diluted in ice-cold buffer 1 (with or without hFSH), and the substance dilutions were placed on ice until applied to the cells. The cell supernatant was then aspirated off, and the cells were washed 2x with 200 µl of buffer 1. The cells were treated with 60 µl of the appropriate substance concentrations at 37°C for 2h. The cells were then lysed with 60 µl of buffer 2 (put onto the supernatant) (on a plate shaker at RT for 30 min). The test conjugates (cAMP-D2 and anti-cAMP cryptate, CIS Bio) were diluted in buffer 3 in accordance with the manufacturers' information. The actual mixture for measurement was pipetted into a black 96-well plate (in each case 15 µl of the cell lysate diluted with 35 µl of buffer 1; firstly 25 µl of cAMP-D2 conjugate were pipetted and, after 10 min, 25 µl of the anti-cAMP cryptate were added). This is followed by incubation at RT for 90 minutes. The measurement was carried out in a PheraStar (BMG).
Dose-effect curve (hFSH) for the human receptor: 1 e-8, 3e-9, 1 e-9, 3e-10, 1e-10, 3e-11, 1 e-11, 3e-12 mol/I. The test substances were employed in suitable dilutions in the absence (test for agonism) and in the presence of 1e-9 mol/l hFSH.
The values of the well ratio were averaged and then entered directly in SigmaPlot versus the concentrations. The maximum and minimum values were determined for each plate, and half the difference is to be regarded as IC50. […] Table 1. FSH-antagonistic effect of selected compounds in the HTRF assay

Compound | IC50 [nM]
COc1ccccc1C#Cc1ccc(OC(C)C)c(C(=O)NC(CO)Cc2c[nH]c3ccc(F)cc23)c1 (stereo not shown) [Example 22, N-[2-(5-Fluoro-1H-indol-3-yl)-1-hydroxymethyl-ethyl]-2-isopropoxy-5-(2-methoxy-phenylethynyl)-benzamide] | 150
CC(C)Oc1ccc(C#Cc2ccccc2)cc1C(=O)NC(CO)Cc1c[nH]c2ccc(F)cc12 (stereo not shown) [Example 21, N-[2-(5-Fluoro-1H-indol-3-yl)-1-hydroxymethyl-ethyl]-2-isopropoxy-5-phenylethynyl-benzamide] | 300
COc1ccccc1C#Cc1ccc(OC(C)C)c(C(=O)N[C@H](CO)Cc2c[nH]c3ccccc23)c1 [Example 4, N-[(S)-1-Hydroxymethyl-2-(1H-indol-3-yl)-ethyl]-2-isopropoxy-5-(2-methoxy-phenylethynyl)-benzamide] | 7500
CCn1cc(C[C@H](CO)NC(=O)c2cc(C#Cc3ccccc3OC)ccc2OC(C)C)c2ccccc21 [Example 24, N-[(R)-2-(1-Ethyl-1H-indol-3-yl)-1-hydroxymethyl-ethyl]-2-isopropoxy-5-(2-methoxy-phenylethynyl)-benzamide] | 20

Second part, the compound after the results:

IC50 [nM] | Compound
30 | COc1ccccc1C#Cc1ccc(OC(C)C)c(C(=O)NC(CO)Cc2c[nH]c3cc(F)c(F)cc23)c1 (racemic) [Example 23, N-[(RS)-2-(5,6-Difluoro-1H-indol-3-yl)-1-hydroxymethyl-ethyl]-2-isopropoxy-5-(2-methoxy-phenylethynyl)-benzamide]
80 | Cc1ccccc1C#Cc1ccc(OC(C)C)c(C(=O)N[C@@H](CO)Cc2c[nH]c3ccccc23)c1 [Example 5, N-[(R)-1-Hydroxymethyl-2-(1H-indol-3-yl)-ethyl]-2-isopropoxy-5-o-tolylethynyl-benzamide]
250 | CCCOc1ccc(C#Cc2ccccc2)cc1C(=O)N[C@@H](CO)Cc1c[nH]c2ccccc12 [Example 1, N-[(R)-1-Hydroxymethyl-2-(1H-indol-3-yl)-ethyl]-5-phenylethynyl-2-propoxybenzamide]
100 | COc1ccccc1C#Cc1cc(C(=O)N[C@@H](CO)Cc2c[nH]c3ccccc23)c2ccccc2c1 [Example 6, 3-(2-Methoxy-phenylethynyl)-naphthalene-1-carboxylic acid [(R)-1-hydroxymethyl-2-(1H-indol-3-yl)-ethyl]-amide]
70 | CCCOc1ccc(C#Cc2ccccc2OC)cc1C(=O)N[C@@H](CO)Cc1c[nH]c2ccccc12 [Example 2, N-[(R)-1-Hydroxymethyl-2-(1H-indol-3-yl)-ethyl]-5-(2-methoxyphenylethynyl)-2-propoxy-benzamide]
700 | COc1ccccc1C#Cc1ccc(OC(C)C)c(C(=O)N[C@H](Cc2c[nH]c3ccccc23)C(C)(C)O)c1 [Example 20, N-[(R)-2-Hydroxy-1-(1H-indol-3-ylmethyl)-2-methyl-propyl]-2-isopropoxy-5-(2-methoxy-phenylethynyl)-benzamide]
